Experimental data reported in patent EP0414894A1 (priority 1989, dated 1990).
Values joined by “and” are separate entries in the source; they are usually repeats but may differ in a detail not shown here. Equal entries are not always repeated.

Experiments:
[1] = tested on: domestic flies; test: insecticidal activity, laboratory test in gauze boxes; format: in vivo; details: 2% solution in 5% aqueous glucose; observed in 48-72 hours
Protocol: The compound obtained was used for preparing an insecticidal composition which was a 2% solution of the compound in a 5% aqueous solution of glucose. The test for activity of the insecticidal composition of the invention was conducted on domestic flies. Into gause 10x10 cm boxes /6 boxes/ 6-7-day flies were placed in the number of 50 individuals per box, which were of both sexes. The Petri dishes containing the insecticidal composition of the invention were put into 5 boxes. The observations for fly death were carried out in 48-72 hours. The Petri dish containing a 5% aqueous glucose solution were placed into a control box.

[2] = tested on: domestic flies; test: insecticidal activity, full-scale (large-scale) test in premises; format: in vivo; details: 2% solution, 2-3 dishes per 20 m²; 72 hours
Protocol: The full-scale tests for activity of the insecticidal composition of the invention to domestic flies in habitable and industrial premises were carried out as follows. The Petri dishes containing a 2% solution of the insecticidal composition of the invention were located according 2-3-dishes per 20 m². The composition activity was evaluated by a direct estimation of killed insects in 72 hours or by using an adhesive tape to count the number of flies on its surface prior to and after conducting the test.

[3] = tested on: Influenza A viruses; test: virulicidal activity, virus titer in allantoic fluid by hemagglutination-inhibition
[4] = tested on: Meningopneumonia virus; parameters: species or system meningopneumonia pathogene/MP strain/
[5] = tested on: Hepatitis B virus; test: virulicidal activity, HBsAg titer in blood serum
Description: table ratio instead of the test composition.

Structure (SMILES) | Death of flies, % Tests in laboratory [1] | Death of flies, % Tests in large-scale [2] | Virulicidal activity (%) under exposure 30 min ([3]; concentration 1.0 % by mass) | Virulicidal activity (%) under exposure 60 min ([3]; concentration 1.0 % by mass) | Virulicidal activity (%) under exposure 30 min ([3]; concentration 2.0 % by mass) | Virulicidal activity (%) under exposure 60 min ([3]; concentration 2.0 % by mass) | Virulicidal activity (%) under exposure 30 min [4] | Virulicidal activity (%) under exposure 60 min [4] | Virulicidal activity (%) under exposure 30 min ([5]; concentration 1.0 % by mass) | Virulicidal activity (%) under exposure 60 min ([5]; concentration 1.0 % by mass) | Virulicidal activity (%) under exposure 30 min ([5]; concentration 2.0 % by mass) | Virulicidal activity (%) under exposure 60 min ([5]; concentration 2.0 % by mass)
CC(C)OP(=NC(CO)C(O)c1ccc([N+](=O)[O-])cc1)(OC(C)C)OC(C)C (stereo not drawn) [Example 3, triisopropoxyphosphazo-1-para-nitrophenyl-1,3-propandiol] | 82.0% | 80.0% | – | – | – | – | – | – | – | – | – | –
O=[N+]([O-])c1ccc(C(O)C(CO)N=P(OC(CCl)c2ccccc2)(OC(CCl)c2ccccc2)OC(CCl)c2ccccc2)cc1 (stereo not drawn) [Example 4, tris/2-chloro-1-phenylethoxy/phosphazo-1-para-nitrophenyl-1,3-propandiol] | 73.4% | 75.0% | – | – | – | – | – | – | – | – | – | –
CC(C)OP(=NC(CCl)C(O)c1ccc([N+](=O)[O-])cc1)(OC(C)C)OC(C)C (stereo not drawn) [Example 6, tri-isopropoxyphosphazo-1-para-nitrophenyl-1-chloro-3-propanol] | 90.9% | 89.0% | 75.0% | 98.0% | 93.8% | 100.0% | 99.0% and 100.0% | 100.0% | 100.0% | 100.0% | 100,0% | 100,0%
CCCCOP(=NC(CCl)C(O)c1ccc([N+](=O)[O-])cc1)(OCCCC)OCCCC (stereo not drawn) [Example 7, tri-n-butoxyphosphazo-1-paranitrophenyl-1-chloro-3-propanol] | 96.0% | 96.8% | – | – | – | – | – | – | – | – | – | –
O=[N+]([O-])c1ccc(C(O)C(CCl)N=P(OC(CCl)c2ccccc2)(OC(CCl)c2ccccc2)OC(CCl)c2ccccc2)cc1 (stereo not drawn) [Example 8, tris/2-chlorol-phenylethoxy/-phosphazo-1-paranitrophenyl-1-chloro-3-propanol] | 84.3% | 84.0% | – | – | – | – | – | – | – | – | – | –
CCCOP(=NC(CCl)C(Cl)c1ccc([N+](=O)[O-])cc1)(OCCC)OCCC (stereo not drawn) [Example 11, tri-n-propoxyphosphazo-1-para-nitrophenyl-1,3-dichloropropane] | 89.0% | 89.0% | – | – | – | – | – | – | – | – | – | –
CC(C)OP(=NC(CCl)C(Cl)c1ccc([N+](=O)[O-])cc1)(OC(C)C)OC(C)C (stereo not drawn) [Example 12, triisopropoxyphosphazo-1-paranitrophenyl] | 92.0% | 90.0% | – | – | – | – | – | – | – | – | – | –
CCCCOP(=NC(CCl)C(Cl)c1ccc([N+](=O)[O-])cc1)(OCCCC)OCCCC (stereo not drawn) [Example 13, tri-n-butoxyphosphazo-1-para-nitrophenyl-1,3-dichloropropane] | 92.0% | 91.0% | 50.0% | 75.0% | 93.8% | 100.0% | 75.0% and 99.0% | 100.0% | 75.0% | 100.0% | 100,0% | 100,0%
O=[N+]([O-])c1ccc(C(O)C(CO)N=P(Oc2ccccc2)(Oc2ccccc2)Oc2ccccc2)cc1 (stereo not drawn) [Example 21, triphenoxyphosphazo-1-para-nitrophenyl-1,3-propanol] | – | – | 87.5% | 100.0% | – | – | – | – | 50.0% | 87.5% | 100,0% | 100,0%
